Values joined by “and” are separate entries in the source; they are usually repeats but may differ in a detail not shown here. Identical values can stand only once.
Experiment: Body weight, biochemical and haematological parameters in DHT-induced AGA mice (0.5% testosterone then topical treatment)
Format: in vivo, C57BL/6J mice
Details: for Weight of C57BL/6J mice: individual mice; for LYMPH: unit assumed
Procedure: The experiments were performed on C57BL/6 J and Athymic nude mice (NU/J Foxn1^nu) of 6–7 weeks of age obtained from Animal House Facility, CSIR-Indian Institute of Integrative Medicine (IIIM), Jammu, India. […] The animals were provided with ad libitum feed (standard pellet diet) and autoclaved RO water throughout the study. The body weight of mice was measured after seven days before treatment.
C57BL/6 J mice (male) were obtained from CSIR-IIIM Animal House at 7 weeks of age. We used a DHT-induced AGA mice model for this study. […] At the end of the experiment, skin samples were collected and preserved in 10% neutral buffered formalin for tissue sectioning and staining using haematoxylin and eosin (H&E). The histopathological examinations were performed under the 10× and 40× objectives of light microscope (Magnus, Mx21i).
Every two weeks during the experimental period, mice were anesthetized, and the blood samples were collected into tubes containing heparin sodium to detect the total and differential white blood cells, haemoglobin, red blood cell, platelet count, mean corpuscular haemoglobin, mean corpuscular volume, red blood cell volume, mean platelet volume, and analyzed using an automated haematology analyzer (Model: XT1800i; Make: Sysmex).
Every two weeks during the experimental period, mice and rats were anesthetized, and blood samples were collected into non-heparinized tubes and then centrifuged at 1000 rpm at 4 °C for 10 min to obtain the serum. The biochemical parameters, including total protein, aspartate aminotransferase, alanine aminotransferase, total protein, albumin, total bilirubin, direct bilirubin, glucose, total cholesterol, triglyceride, low-density lipoprotein, high-density lipoprotein, creatinine, and uric acid, were measured using an automatic biochemical analyzer (Model: EM360; Make: Erba Mannheim).

In the case of `Fc1ccc(-c2cnc3[nH]cc(-c4ccnc(NC5CC5)n4)c3c2)cc1` [MJ04], the “Weight of C57BL/6J mice” value (0.016 mg/Kg, DAY 1, in g (unit assumed)) was 27.2 and 23.8 and 24.6 and 24.7 and 25.6 and 25.7 and 25.8, the “Weight of C57BL/6J mice” value (0.016 mg/Kg, DAY 7) was 28.1 and 25.1 and 26.1 (2×) and 26.9 and 27.1 and 27.3 and the “Weight of C57BL/6J mice” value (0.016 mg/Kg, DAY 14, in g (unit assumed)) was 29.3 and 26.4 and 27.3 and 27.4 and 28.1 and 28.4 and 28.7. For the same compound, the “Weight of C57BL/6J mice” value (0.016 mg/Kg, DAY 21, in g (unit assumed)) was 27.6 and 28.7 and 28.9 and 29.7 and 30.1 and 30.4, the “Weight of C57BL/6J mice” value (0.016 mg/Kg, DAY 28) was 30.3 and 30.4 (2×) and 31.6 and 31.7 and the “Weight of C57BL/6J mice” value (0.04 mg/Kg, DAY 1) was 24.2 and 24.6 and 25.6 (2×) and 25.7 and 25.8 and 26.3 and 27.4. For the same compound, the “Weight of C57BL/6J mice” value (0.04 mg/Kg, DAY 7, in g (unit assumed)) was 26.1 and 26.3 and 26.4 and 26.7 and 26.9 and 27.1 and 27.2 and 28.7, the “Weight of C57BL/6J mice” value (0.04 mg/Kg, DAY 14) was 28.1 and 28.3 (2×) and 28.5 and 28.6 and 28.7 and 29.6 and the “Weight of C57BL/6J mice” value (0.04 mg/Kg, DAY 21) was 29.4 and 29.7 and 29.8 and 30.1 and 30.4 (2×). For the same compound, the “Weight of C57BL/6J mice” value (0.04 mg/Kg, DAY 28) was 30.3 and 31.2 (2×) and 31.3 and 31.5, the “Weight of C57BL/6J mice” value (0.08 mg/Kg, DAY 1) was 24.8 and 25.4 (2×) and 26.4 (2×) and 24.2 and 25.6 and 25.9 and the “Weight of C57BL/6J mice” value (0.08 mg/Kg, DAY 7) was 26.7 (3×) and 25.5 and 27.3 and 27.5 and 28.37 and 25.7. The “Weight of C57BL/6J mice” value (0.08 mg/Kg, DAY 14) was 27.6 and 28.1 (2×) and 28.4 and 27.1 and 29.3 and 27.4, the “Weight of C57BL/6J mice” value (0.08 mg/Kg, DAY 21) was 29.4 (2×) and 29.7 and 30.1 and 30.7 and 28.6 and the “Weight of C57BL/6J mice” value (0.08 mg/Kg, DAY 28) was 30.3 and 31.2 and 31.3 (2×) and 30.2. It also gave an ALP (Day 21, 0.016 mg/Kg) of 99 U/L, an ALT/SGPT (Day 21, 0.016 mg/Kg) of 86 U/L and an AST/SGOT (Day 21, 0.016 mg/Kg) of 143 U/L. The Cholesterol (Day 21, 0.016 mg/Kg) was 154 mg/dL, the Creatine (Day 21, 0.016 mg/Kg) was 0.72 mg/dL and the HCT (Day 21, 0.016 mg/Kg) was 48%. It also gave an HDL (Day 21, 0.016 mg/Kg) of 112 mg/dL, an HGB (Day 21, 0.016 mg/Kg) of 14 g/dL and an LDL (Day 21, 0.016 mg/Kg) of 103 mg/dL. For the same compound, the MCHC (Day 21, 0.016 mg/Kg) was 29 g/dL, the MCV (Day 21, 0.016 mg/Kg) was 50 fL and the NEUT (Day 21, 0.016 mg/Kg) was 25.7%. The PLT (Day 21, 0.016 mg/Kg) was 1105 103/μl, the RBC (Day 21, 0.016 mg/Kg) was 9.7 1012/l and the Total protein (Day 21, 0.016 mg/Kg) was 5.2 g/dL. For the same compound, the Triglyceride (Day 21, 0.016 mg/Kg) was 114 mg/dL, the Urea (Day 21, 0.016 mg/Kg) was 55 mg/dL and the WBC (Day 21, 0.016 mg/Kg) was 6.5 103/μl. The LYMPH (Day 21, 0.016 mg/Kg) was 73.3%, the ALP (Day 21, 0.04 mg/Kg) was 121 U/L and the ALT/SGPT (Day 21, 0.04 mg/Kg) was 74 U/L. The AST/SGOT (Day 21, 0.04 mg/Kg) was 148 U/L, the Cholesterol (Day 21, 0.04 mg/Kg) was 138 mg/dL and the Creatine (Day 21, 0.04 mg/Kg) was 0.69 mg/dL. The HCT (Day 21, 0.04 mg/Kg) was 46%, the HDL (Day 21, 0.04 mg/Kg) was 111 mg/dL and the HGB (Day 21, 0.04 mg/Kg) was 13 g/dL. The LDL (Day 21, 0.04 mg/Kg) was 101 mg/dL, the MCHC (Day 21, 0.04 mg/Kg) was 29 g/dL and the MCV (Day 21, 0.04 mg/Kg) was 50 fL. For the same compound, the NEUT (Day 21, 0.04 mg/Kg) was 39.4%, the PLT (Day 21, 0.04 mg/Kg) was 899 103/μl and the RBC (Day 21, 0.04 mg/Kg) was 9.0 1012/l. It also gave a Total protein (Day 21, 0.04 mg/Kg) of 4.9 g/dL, a Triglyceride (Day 21, 0.04 mg/Kg) of 127 mg/dL and a Urea (Day 21, 0.04 mg/Kg) of 49 mg/dL. The WBC (Day 21, 0.04 mg/Kg) was 3.0 103/μl, the LYMPH (Day 21, 0.04 mg/Kg) was 60.3% and the ALP (Day 21, 0.08 mg/Kg) was 111 U/L. For the same compound, the ALT/SGPT (Day 21, 0.08 mg/Kg) was 58 U/L, the AST/SGOT (Day 21, 0.08 mg/Kg) was 114 U/L and the Cholesterol (Day 21, 0.08 mg/Kg) was 184 mg/dL. The Creatine (Day 21, 0.08 mg/Kg) was 0.49 mg/dL, the HCT (Day 21, 0.08 mg/Kg) was 36% and the HDL (Day 21, 0.08 mg/Kg) was 105 mg/dL. The HGB (Day 21, 0.08 mg/Kg) was 10 g/dL, the LDL (Day 21, 0.08 mg/Kg) was 102 mg/dL and the MCHC (Day 21, 0.08 mg/Kg) was 28 g/dL. For the same compound, the MCV (Day 21, 0.08 mg/Kg) was 50 fL, the NEUT (Day 21, 0.08 mg/Kg) was 32.4% and the PLT (Day 21, 0.08 mg/Kg) was 424 103/μl. The RBC (Day 21, 0.08 mg/Kg) was 6.9 1012/l, the Total protein (Day 21, 0.08 mg/Kg) was 5.2 g/dL and the Triglyceride (Day 21, 0.08 mg/Kg) was 108 mg/dL. The Urea (Day 21, 0.08 mg/Kg) was 71 mg/dL, the WBC (Day 21, 0.08 mg/Kg) was 3.3 103/μl and the LYMPH (Day 21, 0.08 mg/Kg) was 63%. The ALP (Day 28, 0.016 mg/Kg) was 193 U/L, the ALT/SGPT (Day 28, 0.016 mg/Kg) was 85 U/L and the AST/SGOT (Day 28, 0.016 mg/Kg) was 75 U/L. The Cholesterol (Day 28, 0.016 mg/Kg) was 194 mg/dL, the Creatine (Day 28, 0.016 mg/Kg) was 0.20 mg/dL and the HCT (Day 28, 0.016 mg/Kg) was 46.0%. For the same compound, the HDL (Day 28, 0.016 mg/Kg) was 94 mg/dL, the HGB (Day 28, 0.016 mg/Kg) was 14 g/dL and the LDL (Day 28, 0.016 mg/Kg) was 109 mg/dL. For the same compound, the MCHC (Day 28, 0.016 mg/Kg) was 30.0 g/dL, the MCV (Day 28, 0.016 mg/Kg) was 63 fL and the PLT (Day 28, 0.016 mg/Kg) was 1727 103/μl. For the same compound, the RBC (Day 28, 0.016 mg/Kg) was 7.4 106/μl, the Total protein (Day 28, 0.016 mg/Kg) was 6.3 g/dL and the Triglyceride (Day 28, 0.016 mg/Kg) was 132 mg/dL. The Urea (Day 28, 0.016 mg/Kg) was 54 mg/dL, the WBC (Day 28, 0.016 mg/Kg) was 7.8 103/μl and the ALP (Day 28, 0.04 mg/Kg) was 243 U/L. The ALT/SGPT (Day 28, 0.04 mg/Kg) was 69 U/L, the AST/SGOT (Day 28, 0.04 mg/Kg) was 107 U/L and the Cholesterol (Day 28, 0.04 mg/Kg) was 165 mg/dL. The Creatine (Day 28, 0.04 mg/Kg) was 0.14 mg/dL, the HCT (Day 28, 0.04 mg/Kg) was 46.0% and the HDL (Day 28, 0.04 mg/Kg) was 108 mg/dL. The HGB (Day 28, 0.04 mg/Kg) was 14 g/dL, the LDL (Day 28, 0.04 mg/Kg) was 91 mg/dL and the MCHC (Day 28, 0.04 mg/Kg) was 30.0 g/dL. The MCV (Day 28, 0.04 mg/Kg) was 62.0 fL, the PLT (Day 28, 0.04 mg/Kg) was 1687 103/μl and the RBC (Day 28, 0.04 mg/Kg) was 7.5 106/μl. For the same compound, the Total protein (Day 28, 0.04 mg/Kg) was 5.8 g/dL, the Triglyceride (Day 28, 0.04 mg/Kg) was 122 mg/dL and the Urea (Day 28, 0.04 mg/Kg) was 52 mg/dL. The WBC (Day 28, 0.04 mg/Kg) was 7.5 103/μl, the ALP (Day 28, 0.08 mg/Kg) was 189 U/L and the ALT/SGPT (Day 28, 0.08 mg/Kg) was 63 U/L. For the same compound, the AST/SGOT (Day 28, 0.08 mg/Kg) was 113 U/L, the Cholesterol (Day 28, 0.08 mg/Kg) was 194 mg/dL and the Creatine (Day 28, 0.08 mg/Kg) was 0.13 mg/dL. It also gave an HCT (Day 28, 0.08 mg/Kg) of 52.0%, an HDL (Day 28, 0.08 mg/Kg) of 106 mg/dL and an HGB (Day 28, 0.08 mg/Kg) of 15 g/dL. The LDL (Day 28, 0.08 mg/Kg) was 78 mg/dL, the MCHC (Day 28, 0.08 mg/Kg) was 29.0 g/dL and the MCV (Day 28, 0.08 mg/Kg) was 61.0 fL. For the same compound, the PLT (Day 28, 0.08 mg/Kg) was 1362 103/μl, the RBC (Day 28, 0.08 mg/Kg) was 8.6 106/μl and the Total protein (Day 28, 0.08 mg/Kg) was 6.2 g/dL. The Triglyceride (Day 28, 0.08 mg/Kg) was 174 mg/dL, the Urea (Day 28, 0.08 mg/Kg) was 79 mg/dL and the WBC (Day 28, 0.08 mg/Kg) was 7.1 103/μl.

From PMC11025159 (Journal of Translational Medicine, 2024)
